Five compounds from patent US7528128B2, “Pyrrolo[2,1-C][1,4]benzodiazepine hybrids and a process for the preparation thereof” (Council of Scientific & Industrial Research, priority 2006, dated 2009) can be followed below.

Values after ≈ are worked out from the molar mass of the structure shown. Some results are limits rather than exact numbers.

In one series the test system is MCF7 (breast). Nature of the series: In vitro cytotoxicity, 48 h continuous drug exposure. In kind it is cell-based, human. On the procedure:
(§1) In vitro evaluation of cytotoxic activity. The compound 5a, 5b, 5g, 5i and 5j were evaluated for in vitro anticancer activity against nine human tumour cells derived from six cancer types (colon, prostate, oral, lung, cervix and breast cancer) as shown in Table 3. […] Compounds 5a, 5b, 5g, 5i and 5j have been evaluated for their in vitro cytotoxicity in selected human cancer cell lines of colon (Colo205), lung (Hop-62), cervix (SiHa), prostate (DU145, PC3), oral (DWD, HT1080), and breast (MCF7, Zr-75-1) origin. A protocol of 48 h continuous drug exposure has been used and an […] has been used to estimate cell viability or growth. […] Compound 5a, Colo205 cell growth by 83%, DU145 cell growth by 84%, DWD cell growth by 70%, Hop62 cell growth by 87%, HT1080 cell growth by 80%, MCF7 cell growth by 73%, PC3 cell growth by 91%, SiHa cell growth by 67%, Zr-75-1 cell growth by 76%. Compound 5b, Colo205 cell growth by 20%, DU145 cell growth by 64%, DWD cell growth by 70%, Hop62 cell growth by 78%, HT1080 cell growth by 72%, MCF7 cell growth by 69%, PC3 cell growth by 72%, SiHa cell growth by 20%, Zr-75-1 cell growth by 20%. Compound 5g, Colo205 cell growth by 50%, DU145 cell growth by 20%, DWD cell growth by 94%, Hop62 cell growth by 84%, HT1080 cell growth by 94%, MCF7 cell growth by 71%, PC3 cell growth by 86%, SiHa cell growth by 74%, Zr-75-1 cell growth by 72%. Compound 5i, DU145 cell growth by 42%, Hop62 cell growth by 60%, HT1080 cell growth by 70%, Compound 5j, Colo205 cell growth by 44%, DU145 cell growth by 57%, DWD cell growth by 65%, Hop62 cell growth by 53%, HT1080 cell growth by 71%, PC3 cell growth by 81%, SiHa cell growth by 77%.

Another series has as its system SiHa (cervix). Described as above. The class given is cell-based, human. The settings on record: for cell growth by %: relative to untreated control cells. As for the experimental part: as §1
In another series the test system is HT1080 (oral). The series is described as above. In kind it is cell-based, human. The settings on record: for Activity status in terms of IC50 value: HT1080, Oral; for cell growth by %: HT1080, relative to untreated control cells. As for the experimental part: as §1
The test system of another series is Zr-75-1 (breast). The description is as above. In kind it is cell-based, human. As for the experimental part: as §1
Another series deals with DWD (oral). The series is described as above. The class given is cell-based, human. The settings on record: for cell growth by %: relative to untreated control cells. On the procedure: as §1
The next series relates to PC3 (prostate). The description is as above. In kind it is cell-based, human. The settings on record: for cell growth by %: PC3, relative to untreated control cells. As for the experimental part: as §1
Another series relates to Hop62 (lung). Described as above. The class given is cell-based, human. The settings on record: for Activity status in terms of IC50 value: Hop62, Lung; for cell growth by %: Hop62, relative to untreated control cells. On the procedure:
as §1

For the next series, the system named is DU145 (prostate). Described as above. The class given is cell-based, human. The settings on record: for Activity status in terms of IC50 value: DU145, Prostate; for cell growth by %: DU145, relative to untreated control cells. As for the experimental part:
as §1

In another series the test system is Colo205 (colon). The description is as above. In kind it is cell-based, human. As to conditions: for Activity status in terms of IC50 value: Colo205, Colon; for cell growth by %: Colo205, relative to untreated control cells. On the procedure:
as §1

Series [1] has as its system duplex-form calf thymus DNA (CT-DNA). As to the kind of experiment: Thermal denaturation studies with CT-DNA. In kind it is binding. As to conditions: for ΔTm after incubation at 37° C. for 0 h / ΔTm after incubation at 37° C. for 18 h / ΔTm after incubation at 37° C. for 36 h: [PBD]:[DNA] 1:5, CT-DNA 100 μM, ligand 20 μM; for ΔTm after incubation at 37° C. for 0 h: pH 7.00, 0 h; for ΔTm after incubation at 37° C. for 18 h: pH 7.00, 18 h; for ΔTm after incubation at 37° C. for 36 h: pH 7.00, 36 h; for course of ΔTm over 0 hr, 18 hr and 36 hr (in words): incubation at 37° C. On the procedure:
Compounds were subjected to thermal denaturation studies with duplex-form calf thymus DNA (CT-DNA) using an adaptation of a reported procedure. Working solutions in aqueous buffer (10 mM NaH2PO4/Na2HPO4, 1 mM Na2EDTA, pH 7.00+0.01) containing CT-DNA (100 μm in phosphate) and the PBD (20 μm) were prepared by addition of concentrated PBD solutions in DMSO to obtain a fixed [PBD]/[DNA] molar ratio of 1:5. The DNA-PBD solutions were incubated at 37° C. for 0, 18, and 36 h prior to analysis. Samples were monitored at 260 nm using a Beckman DU-7400 spectrophotometer fitted with high performance temperature controller, and heating was applied at 1° C. min−1 in the 40-90° C. range. DNA helix coil transition temperatures (Tm) were obtained from the maxima in the (dA260)/dT derivative plots. Results are given as the mean ±standard deviation from three determinations and are corrected for the effects of DMSO co-solvent using a linear correction term. Drug-induced alterations in DNA melting behaviour are given by: ΔTm=Tm(DNA+PBD)−Tm (DNA alone), where the Tm value for the PBD-free CT-DNA is 69.0±0.01.

Series [2] relates to selected human cancer cell lines. Nature of the series: In vitro cytotoxicity in selected human cancer cell lines (overall statements). The class given is cell-based. The settings on record: Table 3. As for the experimental part:
as §1

For “7-methoxy-8-{3-[2-benzoyl-(4,6-dichlorophenyloxy)propoxy]}-(11aS)-1,2,3,11a-tetra hydro-5H-pyrrolo[2,1-c][1,4]benzodiazepine-5-one [Compound 5g]”, the “Activity status in terms of IC50 value” in the series with MCF7 (breast) (MCF7, Breast) amounted to 29 µg/mL; in the series on SiHa (cervix) (Cervix) it was 26 µg/mL; in the series with HT1080 (oral), 6 µg/mL; with Zr-75-1 (breast) (Zr-75-1, Breast), 28 µg/mL; in the series on DWD (oral) (Oral) it was 6 µg/mL; in the series on PC3 (prostate) (PC3, Prostate), 14 µg/mL. In addition, the entries for the “Activity status in terms of IC50 value” with Hop62 (lung), in the series with DU145 (prostate) and in the series on Colo205 (colon) were 16 µg/mL, 80 µg/mL and 50 µg/mL, respectively. The “cell growth by %” value with MCF7 (breast) (MCF7, relative to untreated control cells) was found to be 71%; in the series on SiHa (cervix), 74%; in the series with HT1080 (oral) it was 94%; in the series on Zr-75-1 (breast) (Zr-75-1, relative to untreated control cells), 72%; with DWD (oral), 94%; with PC3 (prostate), 86%. Further, the “cell growth by %” value in the series with Hop62 (lung) was determined as 84%; in the series with DU145 (prostate), 20%; in the series on Colo205 (colon), 50%. Further, the “ΔTm after incubation at 37° C. for 0 h” value in series [1] amounted to 1.4 °C. Besides, in series [1], the “ΔTm after incubation at 37° C. for 18 h” value was found to be 1.6 °C. Also, in series [1], the “ΔTm after incubation at 37° C. for 36 h” value amounted to 2.3 °C. Also, in series [1], the “course of ΔTm over 0 hr, 18 hr and 36 hr (in words)” value (“course of ΔTm over 0 hr” for short) is reported as “gradually increased”. The “cytotoxicity against some cancer cell lines (in words)” value in series [2] is “promising cytotoxicity”.
With `COc1cccc2c1C(=O)c1c(O)c3c(c(O)c1C2=O)C[C@@](O)(C(=O)CO)C[C@@H]3O[C@H]1C[C@H](N)[C@H](O)[C@H](C)O1` [ADR, Adriamycin, reference compound], the half-inhibitory concentration (IC50) with MCF7 (breast) (Homo sapiens, MCF7, Breast, read-out: Activity status in terms of IC50 value) is 5 µg/mL (≈ 9.2 µM); in the series on SiHa (cervix) (Homo sapiens, Cervix, read-out: Activity status in terms of IC50 value) it was 5 µg/mL (≈ 9.2 µM); in the series with HT1080 (oral) (Homo sapiens, HT-1080, HT1080, Oral, read-out: Activity status in terms of IC50 value), 4 µg/mL (≈ 7.36 µM); in the series with Zr-75-1 (breast) (Homo sapiens, Zr-75-1, Breast, read-out: Activity status in terms of IC50 value), 5 µg/mL (≈ 9.2 µM); in the series with DWD (oral) (Homo sapiens, Oral, read-out: Activity status in terms of IC50 value), 2 µg/mL (≈ 3.68 µM); in the series on PC3 (prostate) (Homo sapiens, PC3, Prostate, read-out: Activity status in terms of IC50 value), 5 µg/mL (≈ 9.2 µM). Further, the 50% inhibitory concentration (IC50) with Hop62 (lung) (Homo sapiens, HOP-62, Hop62, Lung, read-out: Activity status in terms of IC50 value) is 5 µg/mL (≈ 9.2 µM); in the series on DU145 (prostate) (Homo sapiens, DU-145, DU145, Prostate, read-out: Activity status in terms of IC50 value) it was 6 µg/mL (≈ 11 µM); in the series with Colo205 (colon) (Homo sapiens, COLO 205, Colo205, Colon, read-out: Activity status in terms of IC50 value), 5 µg/mL (≈ 9.2 µM).
For the compound `COc1cc2c(cc1OCCCCCCOc1c(Cl)cc(Cl)cc1C(=O)c1ccccc1)N=C[C@@H]1CCCN1C2=O` [Compound 5i, 7-methoxy-8-{3-[2-benzoyl-(4,6-di-chlorophenyloxy)hexyloxy]}-(11aS)-1,2,3,11a-tetrahydro-5H-pyrrolo[2,1-c][1,4]benzodiazepine-5-one], the “Activity status in terms of IC50 value” in the series on MCF7 (breast) (MCF7, Breast) was above 80 µg/mL; with SiHa (cervix) (Cervix), above 80 µg/mL; in the series with HT1080 (oral) it was 30 µg/mL; in the series on Zr-75-1 (breast) (Zr-75-1, Breast) it was above 80 µg/mL; with DWD (oral) (Oral), above 80 µg/mL; in the series with PC3 (prostate) (PC3, Prostate) it was above 80 µg/mL. In addition, the “Activity status in terms of IC50 value” with Hop62 (lung) is 40 µg/mL; in the series on DU145 (prostate), 58 µg/mL; with Colo205 (colon) it was above 80 µg/mL. Besides, the “cell growth by %” value is 70% in the series on HT1080 (oral), 60% in the series on Hop62 (lung) and 42% in the series on DU145 (prostate). The “ΔTm after incubation at 37° C. for 0 h” value in [1] came to 1.5 °C. For the same compound, the “ΔTm after incubation at 37° C. for 18 h” value in series [1] is 1.9 °C. The “ΔTm after incubation at 37° C. for 36 h” value in series [1] was 2.6 °C. Moreover, the “course of ΔTm over 0 hr” value in series [1] was “gradually increased”.
For the compound `COc1cc2c(cc1OCC(=O)Nc1ccc(Cl)cc1C(=O)c1ccccc1Cl)N=C[C@@H]1CCCN1C2=O` [Compound 5j, 7-Methoxy-8-{N1-[4-chloro-2-(2-chlorobenzoyl)phenyl]2-oxyacetamido}-(11aS)-1,2,3,11a-tetrahydro-5H-pyrrolo[2,1-c][1,4]benzodiazepine-5-one], the “Activity status in terms of IC50 value” in the series on MCF7 (breast) (MCF7, Breast) is 68 µg/mL; with SiHa (cervix) (Cervix), 23 µg/mL; in the series on HT1080 (oral) it was 29 µg/mL; in the series with Zr-75-1 (breast) (Zr-75-1, Breast), above 80 µg/mL; in the series on DWD (oral) (Oral) it was 35 µg/mL; with PC3 (prostate) (PC3, Prostate), 19 µg/mL. The “Activity status in terms of IC50 value” in the series on Hop62 (lung) came to 47 µg/mL; with DU145 (prostate), 43 µg/mL; in the series on Colo205 (colon), 56 µg/mL. Further, the “cell growth by %” value came out at 77% with SiHa (cervix); 71% in the series with HT1080 (oral); 65% in the series with DWD (oral); 81% with PC3 (prostate); 53% with Hop62 (lung); 57% in the series on DU145 (prostate). Besides, the “cell growth by %” value in the series on Colo205 (colon) amounted to 44%. Besides, the “ΔTm after incubation at 37° C. for 0 h” value in series [1] is 1.8 °C. Also, the “ΔTm after incubation at 37° C. for 18 h” value in series [1] worked out at 2.0 °C. Besides, the “ΔTm after incubation at 37° C. for 36 h” value in [1] stood at 2.8 °C. For the same compound, in series [1], the “course of ΔTm over 0 hr” value is recorded as “gradually increased”.
Turning to `COc1cc2c(cc1O)N=CC1CCCN1C2=O` (stereo not shown) [DC-81, reference compound], in series [1], the “ΔTm after incubation at 37° C. for 0 h” value turned out to be 0.3 °C and the “ΔTm after incubation at 37° C. for 18 h” value is 0.7 °C.

By IC50 is commonly meant the concentration needed to halve the response being measured.
